Results taken from patent US7632870B2, “Composition based on substituted 1,3-diphenylprop-2-en-1-one derivatives, preparation and uses thereof” (Genfit, priority 2002, dated 2009).

Tests used:
[1] = tested on: LDL; experiment: Protection against LDL oxidation by copper (conjugated diene formation); type: biochemical; details: FIG. 1-3; compound at 10^-4M; copper alone 348
Experimental: LDL oxidation is an important alteration and plays a predominant role in the establishment and development of atherosclerosis (Jurgens, Hoff et al. 1987). […] Unless otherwise indicated, the reagents were from Sigma (St Quentin, France).
LDL were prepared according to the method described by Lebeau et al. (Lebeau, Furman et al. 2000).
The solutions of test compounds were prepared at 10^−2 M concentration in bicarbonate buffer (pH 9) and diluted in PBS to obtain final concentrations ranging from 0.1 to 100 μM for a total ethanol concentration of 1% (V/V).
Prior to oxidation, EDTA was removed from the LDL preparation by dialysis. Oxidation then took place at 30° C. by addition of 100 μl of 16.6 μM CuSO4 solution to 160 μL of LDL (125 μg protein/ml) and 20 μl of a test compound solution. The formation of dienes, the species under observation, was followed by measuring optical density at 234 nm in the samples treated with the compounds but in the presence or absence of copper. Optical density at 234 nm was measured every 10 minutes for 8 hours in a thermostated spectrophotometer (Tecan Ultra 380). The analyses were performed in triplicate. The compounds were considered to have antioxidant activity when they induced a longer lag phase and reduced the rate of oxidation and the amount of dienes formed in comparison with the control sample. […] FIGS. 1, 2 and 3 give an example of the results illustrating the antioxidant properties of compounds 2 and 5.

[2] = target: T1, PPARα (Homo sapiens, UniProt Q07869); experiment: PPARα/Gal4 transactivation system in RK13 cells (luciferase reporter); type: cell-based, rabbit; details: 24 hours
T1 construct: expressed in transfected cells; host or cells: RK13 cells
T1 sequence (Q07869 239-466 limits assumed): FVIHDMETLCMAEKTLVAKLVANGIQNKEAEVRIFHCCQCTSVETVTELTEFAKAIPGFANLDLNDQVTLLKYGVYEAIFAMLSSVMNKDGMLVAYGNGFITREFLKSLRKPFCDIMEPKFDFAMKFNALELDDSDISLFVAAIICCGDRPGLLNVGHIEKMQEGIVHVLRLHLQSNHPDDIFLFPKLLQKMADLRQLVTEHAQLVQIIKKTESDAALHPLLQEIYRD
Experimental: RK13 cells were incubated with the different compounds at concentrations of 10, 30 and 100 μM or 1, 10 and 100 μM for 24 hours. The results are expressed as the induction factor (luminescent signal relative to untreated cells) after the different treatments.
(§1) PPAR activation was tested in vitro in RK13 fibroblast cell lines by measuring the transcriptional activity of chimeras composed of the DNA binding domain of the yeast gal4 transcription factor and the ligand binding domain of the different PPARs. These latter results were then confirmed in cell lines according to the following protocols:
(§2) RK13 cells were from ECACC (Porton Down, UK) and were grown in DMEM medium supplemented with 10% (V/N) fetal calf serum, 100 U/ml penicillin (Gibco, Paisley, UK) and 2 mM L-glutamine (Gibco, Paisley, UK). The culture medium was changed every two days. Cells were kept at 37° C. in a humidified 95% air/5% CO2 atmosphere.
(§3) The plasmids pG5TkpGL3, pRL-CMV, pGal4-hPPRAα, pGal4-hPPRAγ and pGal4-φ have been described by Raspe, Madsen et al. (1999). The pGal4-mPPRAα and pGal4-hPPRAγ constructs were obtained by cloning into the pGal4-φ vector of PCR-amplified DNA fragments corresponding to the DEF domains of the human PPARα and PPRAγ nuclear receptors.
[…] At the end of the experiment, the cells were lysed (Gibco, Paisley, UK) and luciferase activity was determined with a Dual-Luciferase™ Reporter Assay System kit (Promega, Madison, Wis., USA) according to the supplier's instructions as previously described (Raspe, Madsen et al. 1999).

[3] = target: T2, PPARγ (Homo sapiens, UniProt P37231); experiment: PPARγ/Gal4 transactivation system in RK13 cells (luciferase reporter); type: cell-based; details: 24 hours
T2 construct: expressed in transfected cells; host or cells: RK13 cells
T2 sequence (P37231 238-503 limits assumed): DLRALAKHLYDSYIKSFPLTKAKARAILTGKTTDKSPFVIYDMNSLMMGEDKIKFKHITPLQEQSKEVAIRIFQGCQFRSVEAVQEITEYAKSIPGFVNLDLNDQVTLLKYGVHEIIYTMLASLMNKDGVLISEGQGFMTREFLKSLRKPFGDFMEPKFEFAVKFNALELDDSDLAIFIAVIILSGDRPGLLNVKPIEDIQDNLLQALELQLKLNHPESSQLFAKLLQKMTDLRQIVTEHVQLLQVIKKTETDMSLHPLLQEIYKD
Experimental: RK13 cells were incubated with the different compounds at concentrations of 1, 10 and 100 μM for 24 hours. The results are expressed as the induction factor (luminescent signal relative to untreated cells) after the different treatments.
as §1, §2, §3
RK13 cells were seeded in 24-well culture dishes at 5×10^4 cells/well and transfected for 2 hours with the reporter plasmid pG5TkpGL3 (50 ng/well), the expression vectors pGal4-φ, pGal4-mPPRAα, pGal4-hPPRAα, pGal4-hPPRAγ (100 ng/well) and the transfection efficiency control vector PRL-CMV (1 ng/well) according to the previously described protocol (Raspe, Madsen et al. 1999), then incubated for 36 hours with the test compounds. At the end of the experiment, the cells were lysed (Gibco, Paisley, UK) and luciferase activity was determined with a Dual-Luciferase™ Reporter Assay System kit (Promega, Madison, Wis., USA) according to the supplier's instructions as previously described (Raspe, Madsen et al. 1999).

[4] = tested on: Apo E2/E2 transgenic mice; experiment: Effects on triglyceride and cholesterol metabolism in vivo
Experimental: Apo E2/E2 transgenic mice were kept on a 12-hour light/dark cycle at a constant temperature of 20±3° C. After a 1 week acclimation, the mice were weighed and divided into groups of 6 animals selected so that body weight would be uniformly distributed. The test compounds were suspended in carboxymethylcellulose and administered by intragastric gavage at the indicated doses, once a day for 7 or 8 days. Animals had access to food and water ad libitum. At the end of the experiment the animals were weighed and sacrificed under anesthesia. Blood was collected on EDTA. Plasma was prepared by centrifugation at 3000 rpm for 20 minutes. Liver samples were taken and stored frozen in liquid nitrogen for subsequent analysis.
Serum lipid concentrations (total cholesterol and free cholesterol, triglycerides and phospholipids) were determined by a colorimetric assay (Boehringer, Mannheim, Germany) according to the supplier's instructions. Serum concentrations of apolipoproteins AI, AII and CIII were determined as previously described (Raspe et al. J. Lipid Res. 40, 2099-2110, 1999, Asset G et al., Lipids, 34, 39-44, 1999).

Row | Compound | maximum amount of conjugated dienes formed [1] | Induction factor (luminescent signal relative to untreated cells) ([2]; 1 μM) | Induction factor (luminescent signal relative to untreated cells) ([2]; 10 μM, listed as Cp17) | Induction factor (luminescent signal relative to untreated cells) ([3]; 1 μM) | Induction factor (luminescent signal relative to untreated cells) ([3]; 10 μM) | Induction factor (luminescent signal relative to untreated cells) ([3]; 10 μM, listed as Cp17) | Induction factor (luminescent signal relative to untreated cells) ([3]; 100 μM) | triglycerides in large sized lipoparticles (exclusion chromatography) ([4]; gavage 200 mg/kg for 7 days, FIG. 3-3) | cholesterol in large sized lipoparticles (exclusion chromatography) ([4]; gavage 200 mg/kg for 7 days, FIG. 3-4) | Induction factor (luminescent signal relative to untreated cells) ([2]; 1 μM, listed as Cp33) | Induction factor (luminescent signal relative to untreated cells) ([2]; 10 μM, listed as Cp33) | Induction factor (luminescent signal relative to untreated cells) ([2]; 100 μM, listed as Cp33) | Induction factor (luminescent signal relative to untreated cells) ([3]; 100 μM, listed as Cp33) | triglycerides in large sized lipoparticles (exclusion chromatography) ([4]; 50 mg/kg/day for 8 days, FIG. 3-11) | cholesterol in large sized lipoparticles (exclusion chromatography) ([4]; 50 mg/kg/day for 8 days, FIG. 3-12)
1 | Cc1cc(/C=C/C(=O)c2ccc(Cl)cc2)cc(C)c1OC(C)(C)C(=O)O [Compound 17, 1-[4-chlorophenyl]-3-[3,5-dimethyl-4-carboxydimethylmethyloxyphenyil]prop-2-en-1-one] | 327 nmol per mg of LDL | 79.76 | 85.69 | 15.37 | 25 | 24.92 | 6.13 | decreased | decreased | – | – | – | – | – | –
2 | CCCCCCOc1ccc(C(=O)/C=C/c2cc(C)c(OC(C)(C)C(=O)O)c(C)c2)cc1 [Compound 33, 1-[4-hexyloxyphenyl]-3-[3,5-dimethyl-4-carboxydimethylmethyloxyphenyl]prop-2-en-1-one] | – | – | – | 15.65 | 33.90 | – | 45.6 | – | – | 22.05 | 44.52 | 77.62 | 45.58 | decrease | decrease
